The source of these data is ChEMBL document CHEMBL5506027, “Discovery of a Novel and Potent Cyclin-Dependent Kinase 8/19 (CDK8/19) Inhibitor for the Treatment of Cancer” (J Med Chem, 2024).

Series [1] is described as follows: Selectivity ratio of IC50 for CDK1/CyclinA2 (unknown origin) to IC50 for CDK8/Cyclin C (unknown origin).
The nature of series [2]: Dose normalized AUC in mouse at 5 mg/kg, po measured upto 24 hrs by LC-MS/MS analysis. The format is ADME, organism-based. The conditions noted are these: in vivo.
Series [3] is described as follows: Oral bioavailability in mouse at 5 mg/kg measured upto 24 hrs by LC-MS/MS analysis. The format is ADME, organism-based. The conditions noted are these: in vivo.
Series [4] is described as follows: Tmax in rat at 5 mg/kg, po measured upto 24 hrs by LC-MS/MS analysis. The format is ADME, organism-based. The conditions noted are these: in vivo.
Series [5] in a line: Cmax in rat at 5 mg/kg, po measured upto 24 hrs by LC-MS/MS analysis. The format is ADME, organism-based. The conditions noted are these: in vivo.
The nature of series [6]: AUC(0 to 24 hrs) in rat at 5 mg/kg, po measured upto 24 hrs by LC-MS/MS analysis. The conditions noted are these: in vivo. The format is ADME, organism-based.
Series [7] in a line: Dose normalized AUC in rat at 5 mg/kg, po measured upto 24 hrs by LC-MS/MS analysis. The format is ADME, organism-based. The conditions noted are these: in vivo.
Series [8] in a line: Oral bioavailability in rat at 5 mg/kg measured upto 24 hrs by LC-MS/MS analysis. The format is ADME, organism-based. The conditions noted are these: in vivo.
A short description of series [9]: Tmax in dog at 3 mg/kg, po measured upto 24 hrs by LC-MS/MS analysis. The conditions noted are these: in vivo. The format is ADME, organism-based, Canis lupus familiaris.
A short description of series [10]: AUC(0 to 24 hrs) in dog at 3 mg/kg, po measured upto 24 hrs by LC-MS/MS analysis. The format is ADME, organism-based, Canis lupus familiaris. The conditions noted are these: in vivo.
Series [11] is described as follows: Oral bioavailability in dog at 3 mg/kg measured upto 24 hrs by LC-MS/MS analysis. The format is ADME, organism-based, Canis lupus familiaris. The conditions noted are these: in vivo.
A further series deals with CDK8/Cyclin C (Homo sapiens, UniProt P49336). Nature of the series: Displacement of tracer 236 from CDK8/cyclin C (unknown origin) preincubated for 15 mins followed by tracer addition and measured after 60 mins by FRET based lanthascreen assay. The format is protein-complex assay.
CDK8/Cyclin C, sequence (P49336 whole entry): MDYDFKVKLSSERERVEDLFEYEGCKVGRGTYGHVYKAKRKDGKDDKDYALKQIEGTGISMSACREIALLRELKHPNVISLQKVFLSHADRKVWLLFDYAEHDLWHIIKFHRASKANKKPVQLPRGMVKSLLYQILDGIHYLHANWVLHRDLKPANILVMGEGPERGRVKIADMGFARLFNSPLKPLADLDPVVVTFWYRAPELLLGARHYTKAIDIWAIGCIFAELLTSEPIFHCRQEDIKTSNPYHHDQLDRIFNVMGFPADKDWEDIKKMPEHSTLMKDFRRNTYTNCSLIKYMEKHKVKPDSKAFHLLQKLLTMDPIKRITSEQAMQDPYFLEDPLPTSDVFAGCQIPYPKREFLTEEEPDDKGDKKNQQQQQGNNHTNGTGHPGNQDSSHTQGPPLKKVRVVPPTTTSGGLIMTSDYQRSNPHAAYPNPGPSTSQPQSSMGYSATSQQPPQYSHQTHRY
CDK8/Cyclin C, sequence (P24863 whole entry, further chain): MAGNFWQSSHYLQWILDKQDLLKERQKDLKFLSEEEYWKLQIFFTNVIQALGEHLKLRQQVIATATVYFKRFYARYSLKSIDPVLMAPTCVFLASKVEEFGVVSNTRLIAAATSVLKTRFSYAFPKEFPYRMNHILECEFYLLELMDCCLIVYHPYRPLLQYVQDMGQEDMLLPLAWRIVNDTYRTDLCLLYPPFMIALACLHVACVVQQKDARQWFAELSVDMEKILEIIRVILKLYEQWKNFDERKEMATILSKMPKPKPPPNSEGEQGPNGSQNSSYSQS
In series [12] the target is T1, Cyclin-dependent kinase 5/CDK5 activator 1 (Homo sapiens) (UniProt Q00535+Q15078). Nature of the series: Inhibition of CDK5/p25NCK (unknown origin) at 1 uM by luminescence based assay relative to control. The format is protein-complex assay.
T1 sequence (Q00535 whole entry): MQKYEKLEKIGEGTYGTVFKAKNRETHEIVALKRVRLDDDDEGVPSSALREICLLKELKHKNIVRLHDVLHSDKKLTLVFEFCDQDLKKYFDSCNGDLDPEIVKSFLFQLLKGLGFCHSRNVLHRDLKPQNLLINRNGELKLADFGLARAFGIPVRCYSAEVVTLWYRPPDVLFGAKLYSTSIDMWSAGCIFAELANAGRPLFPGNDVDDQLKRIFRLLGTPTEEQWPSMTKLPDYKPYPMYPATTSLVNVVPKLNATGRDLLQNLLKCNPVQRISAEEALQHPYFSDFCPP
T1 sequence (Q15078 99-307 partner limits assumed): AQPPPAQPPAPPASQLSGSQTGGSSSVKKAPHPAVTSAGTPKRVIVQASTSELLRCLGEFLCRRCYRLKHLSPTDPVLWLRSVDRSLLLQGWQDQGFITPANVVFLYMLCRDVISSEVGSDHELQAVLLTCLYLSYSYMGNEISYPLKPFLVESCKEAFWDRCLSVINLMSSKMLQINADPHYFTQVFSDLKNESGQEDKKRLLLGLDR
The target of series [13] is CDK2/Cyclin A2 (Homo sapiens) (UniProt P24941+P20248). In words: Inhibition of CDK2/CyclinA2 (unknown origin) at 1 uM by luminescence based assay relative to control. The format is protein-complex assay.
Series [14] deals with T1, Cyclin-dependent kinase 5/CDK5 activator 1 (Homo sapiens). Nature of the series: Inhibition of CDK5/p35NCK (unknown origin) at 1 uM by luminescence based assay relative to control. The format is protein-complex assay.
Series [15] has as its target CDK18/Cyclin Y (Homo sapiens) (UniProt Q07002+Q8ND76). Nature of the series: Inhibition of CDK18/cyclinY (unknown origin) at 1 uM by luminescence based assay relative to control. The format is protein-complex assay.
The target of series [16] is Cyclin-Y/Cyclin-dependent kinase 16 (Homo sapiens) (UniProt Q00536+Q8ND76). Nature of the series: Inhibition of CDK16/cyclinY (unknown origin) at 1 uM by luminescence based assay relative to control. The format is protein-complex assay.
For series [17], the target named is CDK1/Cyclin E (Homo sapiens) (UniProt P06493+P24864). Nature of the series: Inhibition of CDK1/cyclinE1 (unknown origin) at 1 uM by luminescence based assay relative to control. The format is protein-complex assay.
CDK1/Cyclin E (Homo sapiens), sequence (P06493 whole entry, looked up): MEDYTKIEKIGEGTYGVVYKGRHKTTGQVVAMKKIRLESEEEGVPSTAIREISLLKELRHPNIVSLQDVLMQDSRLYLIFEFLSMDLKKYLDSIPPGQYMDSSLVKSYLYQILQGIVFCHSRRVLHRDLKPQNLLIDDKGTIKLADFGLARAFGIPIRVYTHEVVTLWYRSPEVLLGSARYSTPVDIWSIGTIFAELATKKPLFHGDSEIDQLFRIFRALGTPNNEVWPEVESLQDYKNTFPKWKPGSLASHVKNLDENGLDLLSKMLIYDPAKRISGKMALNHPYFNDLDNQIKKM
CDK1/Cyclin E (Homo sapiens), sequence (P24864 whole entry, looked up): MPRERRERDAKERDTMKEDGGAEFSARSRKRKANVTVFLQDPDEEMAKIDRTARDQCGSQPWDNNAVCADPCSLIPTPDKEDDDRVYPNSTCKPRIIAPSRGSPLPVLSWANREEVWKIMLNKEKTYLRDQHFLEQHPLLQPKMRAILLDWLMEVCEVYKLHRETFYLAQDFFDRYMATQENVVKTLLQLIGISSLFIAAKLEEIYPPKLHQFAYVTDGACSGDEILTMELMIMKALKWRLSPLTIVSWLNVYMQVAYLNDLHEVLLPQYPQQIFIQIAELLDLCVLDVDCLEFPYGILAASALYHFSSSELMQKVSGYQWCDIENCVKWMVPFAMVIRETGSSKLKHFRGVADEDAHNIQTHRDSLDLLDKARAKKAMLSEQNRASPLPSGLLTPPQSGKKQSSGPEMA
The target of series [18] is CDK3/Cyclin E (Homo sapiens) (UniProt P24864+Q00526). In words: Inhibition of CDK3/cyclinE1 (unknown origin) at 1 uM by luminescence based assay relative to control. The format is protein-complex assay.
CDK3/Cyclin E (Homo sapiens), sequence (P24864 whole entry, looked up): as above
CDK3/Cyclin E (Homo sapiens), sequence (Q00526 whole entry, looked up): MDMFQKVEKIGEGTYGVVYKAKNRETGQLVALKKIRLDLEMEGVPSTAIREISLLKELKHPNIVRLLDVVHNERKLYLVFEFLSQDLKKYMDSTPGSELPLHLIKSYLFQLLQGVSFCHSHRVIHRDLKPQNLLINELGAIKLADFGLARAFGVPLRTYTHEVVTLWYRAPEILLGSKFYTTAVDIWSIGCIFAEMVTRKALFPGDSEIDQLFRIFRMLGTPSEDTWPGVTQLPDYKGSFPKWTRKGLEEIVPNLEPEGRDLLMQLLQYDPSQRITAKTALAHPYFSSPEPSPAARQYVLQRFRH
Series [19] deals with CDK6/cyclin D1 (Homo sapiens) (UniProt P24385+Q00534). In words: Inhibition of CDK6/cyclinD1 (unknown origin) at 1 uM by luminescence based assay relative to control. The format is protein-complex assay.
The target in series [20] is Cyclin-dependent kinase 8 (Homo sapiens, UniProt P49336). In words: Inhibition of CDK8 (unknown origin) assessed as residual activity at 500 nM by ADP-Glo assay.
Cyclin-dependent kinase 8, sequence (P49336 whole entry): as the sequence (P49336 whole entry) above
Series [21] can be described thus: Tmax in mouse at 30 mg/kg, po measured upto 24 hrs by LC-MS/MS analysis. The format is ADME, organism-based. To be noted: in vivo.
A short description of series [22]: AUC(0 to 24 hrs) in mouse at 30 mg/kg, po measured upto 24 hrs by LC-MS/MS analysis. The format is ADME, organism-based. The conditions noted are these: in vivo.
A short description of series [23]: Tmax in rat at 10 mg/kg, po measured upto 24 hrs by LC-MS/MS analysis. The format is ADME, organism-based. To be noted: in vivo.
Series [24] in a line: AUC(0 to 24 hrs) in rat at 10 mg/kg, po measured upto 24 hrs by LC-MS/MS analysis. The format is ADME, organism-based. The conditions noted are these: in vivo.
Series [25] can be described thus: Oral bioavailability in rat at 10 mg/kg measured upto 24 hrs by LC-MS/MS analysis. The format is ADME, organism-based. The conditions noted are these: in vivo.
Series [26] can be described thus: Cmax in dog at 5 mg/kg, po measured upto 24 hrs by LC-MS/MS analysis. The conditions noted are these: in vivo. The format is ADME, organism-based, Canis lupus familiaris.
Series [27] in a line: AUC(0 to 24 hrs) in dog at 5 mg/kg, po measured upto 24 hrs by LC-MS/MS analysis. The format is ADME, organism-based, Canis lupus familiaris. The conditions noted are these: in vivo.
Series [28] in a line: Dose normalized AUC in dog at 5 mg/kg, po measured upto 24 hrs by LC-MS/MS analysis. The format is ADME, organism-based, Canis lupus familiaris. To be noted: in vivo.
The nature of series [29]: Oral bioavailability in dog at 5 mg/kg measured upto 24 hrs by LC-MS/MS analysis. To be noted: in vivo. The format is ADME, organism-based, Canis lupus familiaris.
Series [30] in a line: Tmax in monkey at 5 mg/kg, po measured upto 24 hrs by LC-MS/MS analysis. To be noted: rhesus monkey, in vivo. The format is ADME, organism-based, Macaca mulatta.
Series [31] can be described thus: AUC(0 to 24 hrs) in monkey at 5 mg/kg, po measured upto 24 hrs by LC-MS/MS analysis. The format is ADME, organism-based, Macaca mulatta. To be noted: rhesus monkey, in vivo.
Series [32] in a line: Clearance in monkey at 1 mg/kg, iv measured upto 24 hrs by LC-MS/MS anlaysis. The format is ADME, organism-based, Macaca mulatta. The conditions noted are these: rhesus monkey, in vivo.
Series [33] is described as follows: Volume of distribution at steady state in monkey at 1 mg/kg, iv measured upto 24 hrs by LC-MS/MS anlaysis. The format is ADME, organism-based, Macaca mulatta. To be noted: rhesus monkey, in vivo, read-out: Vdss.
Series [34] can be described thus: Half-life in monkey at 1 mg/kg, iv measured upto 24 hrs by LC-MS/MS anlaysis. The conditions noted are these: rhesus monkey, in vivo. The format is ADME, organism-based, Macaca mulatta.
Series [35] deals with MV4-11. Nature of the series: Antitumor activity against human MV4-11 cells xenografted in BALB/c nude mouse assessed as tumor growth inhibition at 3 mg/kg, po qd and measured twice a week for 3 weeks. The format is functional. To be noted: MV4-11, 504 h, read-out: TGI.
Series [36] deals with MV4-11. In words: Antitumor activity against human MV4-11 cells xenografted in BALB/c nude mouse assessed as tumor growth inhibition at 10 mg/kg, po qd and measured twice a week for 3 weeks. The format is functional. To be noted: MV4-11, 504 h, read-out: TGI.
Series [37] in a line: Toxicity in BALB/c nude mouse assessed as changes in body weight at 3 to 10 mg/kg, po qd measured twice a week for 3 weeks. The format is organism-based. The conditions noted are these: in vivo, 504 h, dose 3-10 mg/kg.
The test system of another series is Mus musculus. Nature of the series: In vivo inhibition of STAT3 phosphorylation in BALB/c nude mouse tumor xenografted with human MV4-11 cells at 10 mg/kg, po qd for 3 weeks and measured 8 to 24 hrs post last dose. The format is functional, organism-based. To be noted: time 22.0 day.
For a further series, the system named is MDA-MB-231. In words: Inhibition of cell growth in human MDA-MB-231 cells. The format is functional, cell-based.
The nature of series [38]: Toxicity in BALB/c nude mouse xenografted with human MV4-11 cells assessed as change in body weight at 3 mg/kg, ip qd and measured twice a week for 3 weeks in presence of carboplatin. The format is organism-based. The conditions noted are these: in vivo, 504 h.
Another series has as its system Z-138. Nature of the series: Antitumor activity against human Z138 cells xenografted in po dosed CB17 SCID mouse assessed as tumor growth inhibition administered once daily for 21 days. The format is functional, organism-based. The conditions noted are these: dose 2.5-5 mg/kg, time 21.0 day.

Calls of active or inactive are those of the source. No cut-off for these calls is given here.

Consider `Cc1c(Br)c(Br)c2c3c1nc(N1CCNCC1)n3CCC2` [SEL-120 FREE BASE], for which the Ratio IC50 in series [1] turned out to be 1.2. Besides, the results for the AUC/dose in series [2] and in series [7] were 270 ng·h/mL and 11.2 ng·h/mL, respectively. Moreover, in series [3], the F is 155%. Further, the Tmax in series [4] was 1.67 h; in series [9] it was 4.18 h. The molecule also registered a Cmax in series [5] of 12 ng/mL. For the same molecule, the AUC(0-t) at 24 h in series [6] was determined as 56 ng·h/mL; in series [10], 2060 ng·h/mL. For the same molecule, the bioavailability in [8] turned out to be 20%; in series [11] it was 136%.
As for `FC(F)c1c(Br)c(Br)cc2c1nc(N1CCNCC1)n2C1CCOCC1`, the figures for the IC50 on CDK8/Cyclin C and with MDA-MB-231 were 2.1 nM and 40 nM, respectively. In addition, the inhibition in [12] came to 88.3%; in series [13], 84.9%; in series [14] it was 75.3%; in [15], 65%; in series [16] it was 64.1%; in [17], 63.4%. The inhibition is 45.4% in series [18] and 19.4% in series [19]. The Activity in series [20] was 14%; in [37] it was “Non-Toxic”; in series [38], “Non-Toxic”; in the series on Z-138 it was “Dose-Dependent Effect”. Moreover, the Tmax came out at 1.5 h in series [21], 2 h in series [23] and 4 h in series [30]. Besides, the AUC(0-t) at 24 h in series [22] was 23900 ng·h/mL; in [24], 1900 ng·h/mL; in series [27], 5590 ng·h/mL; in series [31], 12500 ng·h/mL. Further, the figures for the bioavailability in series [25] and in series [29] were 89% and 85%, respectively. For the same molecule, in series [26], the highest level (Cmax) was 475 ng/mL. In addition, the AUC/dose in series [28] worked out at 1117 ng·h/mL. In [32], this molecule returned a clearance of 13 mL/min/kg. Further, the Vd in series [33] is 7.05 L/kg. For the same molecule, in [34], the half-life was 7 h. Besides, the inhibition in vivo at 3 mg/kg in the series with MV4-11 [35] turned out to be 29%. For the same molecule, the inhibition in vivo at 10 mg/kg with MV4-11 [36] came out at 36%. Moreover, the inhibition entry in the series on Mus musculus is “Active”.
